One may read the pEC50 as −log10 of the EC50, conventionally taken in molar units. Lower therefore signals a large EC50. Broadly, the half-life is the time in which the quantity being followed falls by half. A higher half-life goes with slow decline.

pEC50: −log10 of the molar value.

From ChEMBL document CHEMBL3763064, “Discovery of silyl proline containing HCV NS5A inhibitors with pan-genotype activity: SAR development” (Bioorg Med Chem Lett, 2016) come the findings set out here.

For data set [1], the system named is Hepatitis C virus. In words: Antiviral activity against HCV genotype 1a by replicon assay. The data set is classed as functional, organism-based, Hepacivirus hominis. As to conditions: subtype 1a.
Data set [2] relates to Hepatitis C virus. The experiment in a line: Antiviral activity against HCV genotype 1a expressing NS5A Y93H mutant by replicon assay. The format is functional, organism-based, Hepacivirus hominis. Conditions: subtype 1a. (In general: In antiviral work, replicon cells carry a viral genome segment that copies itself.)
Data set [3] has as its system Hepatitis C virus. The experiment in a line: Antiviral activity against HCV genotype 2a by replicon assay. The data set is classed as functional, organism-based, Hepacivirus hominis.
The nature of data set [4]: Half life in iv dosed Sprague-Dawley rat. The data set is classed as ADME, organism-based. Conditions: in vivo.
The subject of data set [5] is Hepatitis C virus. In words: Antiviral activity against HCV genotype 1b by replicon assay. The format is functional, organism-based, Hepacivirus hominis.
For data set [6], the system named is Hepatitis C virus. In words: Antiviral activity against HCV genotype 3a by replicon assay. The format is functional, organism-based, Hepacivirus hominis.
The subject of a further data set is Rattus norvegicus. In words: AUC in Sprague-Dawley rat at 5 mg/kg, po. The format is ADME, organism-based. Conditions: in vivo.
The target of data set [7] is T1, Nuclear receptor subfamily 1 group I member 2 (Homo sapiens, UniProt O75469).
T1 sequence (O75469 whole entry): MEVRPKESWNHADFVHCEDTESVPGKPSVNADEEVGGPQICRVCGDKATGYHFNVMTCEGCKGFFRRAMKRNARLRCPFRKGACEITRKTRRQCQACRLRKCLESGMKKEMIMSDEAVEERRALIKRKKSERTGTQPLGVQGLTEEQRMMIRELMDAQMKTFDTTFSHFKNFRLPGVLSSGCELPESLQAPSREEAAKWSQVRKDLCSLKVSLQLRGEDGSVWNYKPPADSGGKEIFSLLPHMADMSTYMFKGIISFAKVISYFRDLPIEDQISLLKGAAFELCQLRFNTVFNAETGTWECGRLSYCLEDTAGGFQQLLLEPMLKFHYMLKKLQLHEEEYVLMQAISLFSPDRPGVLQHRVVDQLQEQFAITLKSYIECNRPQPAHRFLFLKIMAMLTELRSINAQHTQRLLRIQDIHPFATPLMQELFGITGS
The experiment in a line: Activation of PXR (unknown origin). The format is ADME.

The test system of data set [8] is Hepatitis C virus. The experiment in a line: Antiviral activity against HCV genotype 2b by replicon assay. The format is functional, organism-based, Hepacivirus hominis.

On to `COC(=O)N[C@H](C(=O)N1CCC[C@H]1c1ncc(-c2ccc(-c3ccc4c(ccc5nc([C@@H]6C[Si](C)(C)CN6C(=O)[C@@H](NC(=O)OC)C(C)C)[nH]c54)c3)cc2)[nH]1)C(C)C`, for which the pEC50 is 11.52 in the data set on Hepatitis C virus [1]; 7.46 in the data set on Hepatitis C virus [2]; 11.40 in the data set with Hepatitis C virus [3]; 11.40 in the data set with Hepatitis C virus [5]; 9.59 in the data set with Hepatitis C virus [6]. The same compound showed a half-life in data set [4] of 6.6 h. Further, in the data set with Rattus norvegicus, the AUC is 3.2 uM.hr/ml.

For `COC(=O)N[C@H](C(=O)N1CCC[C@H]1c1ncc(-c2ccc(-c3cc4cc(-c5cnc([C@@H]6CCCN6C(=O)[C@@H](NC(=O)OC)C(C)C)[nH]5)ccc4o3)cc2)[nH]1)C(C)C`, the pEC50 in the data set on Hepatitis C virus [1] was 11.00; in data set [7], 5.48; in the data set on Hepatitis C virus [2], 7.62; in the data set with Hepatitis C virus [3], 9.40; with Hepatitis C virus [5], 12.00; with Hepatitis C virus [6] it was 8.40. In the data set with Hepatitis C virus [8], this compound had a pEC50 of 6.54.

For the compound `COC(=O)N[C@H](C(=O)N1CC(F)(F)C[C@H]1c1ncc(-c2ccc(-c3ccc4c(ccc5nc([C@@H]6C[Si](C)(C)CN6C(=O)[C@@H](NC(=O)OC)C(C)C)[nH]c54)c3)cc2)[nH]1)C(C)C`, the negative logarithm of the EC50 (pEC50) in the data set with Hepatitis C virus [1] was 10.82; in the data set on Hepatitis C virus [2], 7.34. The AUC in the data set on Rattus norvegicus came to 5 uM.hr/ml.

In the data set on Hepatitis C virus [2], `COC(=O)N[C@H](C(=O)N1C[Si](C)(C)C[C@H]1c1ncc(-c2ccc(-c3ccc4c(ccc5nc([C@@H]6CC(F)(F)CN6C(=O)[C@@H](NC(=O)OC)C(C)C)[nH]c54)c3)cc2)[nH]1)C(C)C` gave a pEC50 of 7.19. Moreover, the half-life in data set [4] was 6.7 h. The AUC with Rattus norvegicus worked out at 7.6 uM.hr/ml.

Regarding `COC(=O)N[C@H](C(=O)N1CCC[C@H]1c1ncc(-c2ccc(-c3cc4cc(-c5cnc([C@@H]6C[Si](C)(C)CN6C(=O)[C@@H](NC(=O)OC)C(C)C)[nH]5)ccc4o3)cc2)[nH]1)C(C)C`, the pEC50 with Hepatitis C virus [1] is 10.40; in the data set on Hepatitis C virus [2] it was 6.82; with Hepatitis C virus [3], 8.62; in the data set on Hepatitis C virus [5], 11.52; in the data set with Hepatitis C virus [6] it was 7.82.
